Data as given in patent US20070015737A1, “Compounds for inhibiting diseases and preparing cells for transplantation” (Neurochem (International) Limited, priority 1999, published 2007).
“And” between values parts separate entries of the source, which are not always exact repeats. Equal values may be shown once.

Key:
Human IAPP (hIAPP) = molecular target: T1, Human IAPP (hIAPP) (Homo sapiens, UniProt P10997); test: ELISA assay for quantitative determination of fibril formation (Example 4); type: biochemical; details: for proportion of non-fibrillar IAPP in the supernatant: IAPP 20 μM, inhibitor:IAPP molar ratio 10:1, compared to control
T1 construct: Human IAPP (hIAPP) was synthesised by solid state synthesis (Advanced Biotechnologies, UK); purchased Advanced Biotechnologies, UK; host or cells: chemical solid-phase synthesis
T1 sequence (P10997 34-70 limits assumed): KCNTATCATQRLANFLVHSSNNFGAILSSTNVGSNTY
Method: ELISA Assay for Quantitative Determination of Fibril Formation
Human IAPP (hIAPP) was synthesised by solid state synthesis (Advanced Biotechnologies, UK). Human IAPP forms fibrils immediately in aqueous media. Aliquots of IAPP in water (800 μg/ml) were stored frozen at −20° C. until use. These samples contain small numbers of fibrils visible with electron microscopy (em).
Two sets of samples containing IAPP (20 μM) with or without inhibitors (at a molar ratio of 10:1 with IAPP, (20 μM)) were prepared on day 1 in Tris buffer. One set was centrifuged, the supernatant removed and frozen immediately at −20° C. (Time zero time point). The other set was incubated overnight at room temp with shaking (time 24 h time point). On day 2 these samples were spun and supernatant removed to determine the proportion of non-fibrillar IAPP.
To assay IAPP in the supernatant both sets of samples were serially diluted in bicarbonate coating buffer, added to ELISA wells and incubated overnight. Plates were washed in phosphate buffer containing Tween (PBS/Tw)×3. Diluted antiserum raised against human IAPP was incubated on the plate for 90 minutes at 37° C. Following washing in PBS/Tw, alkaline phosphatase conjugated anti-rabbit antisera was incubated for 90 mins. Following washing in PBS/Tw, alkaline phosphate substrate was added and colour allowed to develop for 30 mins. Optical density was read at 405 nm.
Data from all samples was calculated to determine changes of IAPP concentration in the supernatant induced by the candidate substance immediately (i.e. at time zero) or after 24 h incubation. Data in FIG. 1 is expressed as the proportion of non-fibrillar IAPP in the supernatant of test samples compared to control at both time points.

IAPP [1] = molecular target: T2, IAPP (Homo sapiens, UniProt P10997); test: Circular dichroic spectroscopy (Example 6); type: biochemical
T2 sequence (P10997 34-70 limits assumed): T1 sequence (P10997 34-70 limits assumed)
Method: Circular Dichroic Spectroscopy
Human IAPP was prepared in 100% HFIP at 1 mg/ml filtered through a 0.31 μm filter, freeze dried in aliquots, resuspended in 20% HFIP and water, and filtered before analysis. The circular dichroic spectroscopy was performed in the same manner as described in Hubbard et al (1991) Biochem J, 275, 785-8. Samples were analysed immediately and after 24 h incubation with candidate substances i, iii, iv and x. […] After 24 h incubation the molecular conformation of IAPP (CNTL) was converted to β-conformation. […] This is prevented by the candidate compounds.

IAPP [2] = molecular target: T2, IAPP; test: Rate of amyloid fibril formation by Thioflavine T spectroscopy (Example 1); type: biochemical; details: Thioflavine T fluorescence
Method: Determination of the Rate of Amyloid Fibril Formation by Thioflavine T Spectroscopy
Detection of ThT fluorescence can be used as a sensitive assay for amyloid fibril formation under different conditions. This assay has been used in experiments to determine the effects of compounds of the invention on amyloid fibril formation.
Human IAPP was dissolved in 40% trifluoroethanol and freeze-dried into conveniently-sized aliquots. IAPP was prepared immediately before the measurements by dissolving in 40% 1,1,1,3,3,3-hexafluoro-2-propanol (HFIP) in water to maintain the peptide in alpha helical conformation and soluble. A stock solution of ThT (2.5 mM) was prepared, 7.9 mg in 10 mL Tris-HCl pH 7.0 and filtered (0.22 μm). Solutions were kept in the dark until use. Fluorescence was examined at 440 nm excitation (slit 5 nm), and emission at 482 nm (slit 10 nm) with stirring. […] of ThT stock (final concentration 62.5 μM) was added to peptide sample and made up to 1 mL in the cuvette. The sample was stirred for 5 min. before taking a reading. Measurements were made at an initial time point (5 min. from sample preparation), at intervals over the next 4-6 h and after overnight incubation at room temperature.

IAPP [3] = molecular target: T2, IAPP; test: Circular dichroism analysis of β-sheet conformation (Example 2); type: biochemical; set-up: add 10 μL of 10 mg/mL IAPP stock solution (final 100 μg peptide); details: changes in ellipticity at 218 nm (β-sheet conformation); peptide:compound 1:10
Method: Circular dichroism analysis was conducted to confirm the activity of certain therapeutic compounds in preventing or inhibiting IAPP-associated fibril formation in accordance with the present disclosure by determining the presence or absence of β-sheet conformation.
The assay, a co-incubation procedure, examines the ability of a compound or substance to inhibit the assembly of amyloid fibrils, e.g., to test for the presence of the amyloidotic b-sheet conformation in the presence of soluble IAPP. Samples are run in the presence and absence (i.e., water alone) of buffering agent, which is done to determine if competitive effects are seen with the ionic buffer (usually phosphate).
Add components used at a molar ratio of 1:10 [peptide:compound]; add 10 μL of 10 mg/mL IAPP stock solution (final 100 μg peptide) to the aqueous solution containing compound to a final volume of 400 μl. The pH of the final assay solution is measured to ensure there is no fluctuation and the spectrum is accumulated using the parameters as shown above.
Add desired amount of compound to achieve a 1:10 molar ratio in 10 mM phosphate buffer, pH 7. Add 10 μL of 10 mg/mL IAPP stock solution (final peptide 100 μg) to the phosphate buffered solution containing the compound and bring to a final volume of 400 μL. The pH of the final assay solution is measured to ensure there is no fluctuation and the spectrum is accumulated using the parameters as shown above.
In both assays, a control sample is run with each test group. This control contains peptide only in water or buffer at a similar final volume of 400 μl. Spectra for the control are collected initially (first run) and at the end of the test (final run) to ensure that the peptide has not undergone extensive aggregation during the course of the assay. Spectra for the controls are used to compare with the measurements obtained with the treated samples.
Make fresh 1 mg/mL stock solution of IAPP in 10 mM phosphate buffer, pH 7. Add desired amount of compound to achieve a 1:10 molar ratio in 10 mM phosphate buffer, pH 7. Incubate for 3 days at room temperature. Make up to final volume of 400 μL with 10 mM phosphate buffer, pH 7. The pH of the final assay solution is measured to ensure there is no fluctuation and the spectrum is accumulated using the parameters as shown above. A similar control is run for comparative purposes.
Plots of the spectra (control and treated) are individually assembled and the changes in ellipticity at 218 nm are examined. This minimum is directly correlated with the amount of peptide in β-sheet conformation present in the sample. Changes in either a positive or negative direction are noted and a relative value (“active” or “not active”) assigned to the compound as a measure of activity.

[4] = system: amyloid in transgenic islets cells expressing human IAPP; test: Electron micrograph analysis of amyloid in cultured transgenic islets; type: cell-based, mouse
Description: These are used as a test system for determining the toxicity and effect of putative amyloid inhibitors in short term culture systems. Whereas normal mice can be used to determine toxicity of compounds added to the media, amyloid fibrils form only in murine islets isolated from transgenic mice expressing the gene for human IAPP (transgene incorporation was confirmed by PCR). These islets are isolated in a similar way to that of human islets and are handpicked from the digest and cultured in 16.7 mM glucose as above. Amyloid fibrils formed within 4 days of culture and can be quantified by quantitative electron microscopy. […] The cells were cultured for 6 days in 11.1 mM glucose and RPMI.
Transgenic islets cells were cultured as described above, for 7 days and the media changed every two days. At the end of the culture period the islets were fixed in 2.5% glutaraldehyde in 0.1M sodium phosphate buffer (pH 7.2) for one hour and post-fixed in 1% osmium tetroxide, and embedded in Spurr's resin (Taab Laboratories, Reading, UK) or contrast enhanced in 2% Uranyl Acetate, dehydrated in methanol and embedded in LRGold (Taab, as previous). Ultrathin sections of the islets were mounted on formvar coated nickel grids. Amyloid was identified by immunogold labelling of tissue sections with an antisera raised to human IAPP 1-37, human IAPP 17-37, rat IAPP 1-37 and goat anti-rabbit gold conjugate (10 nm diameter) either from Biocell, Cardiff, UK or Sigma or by use of protein A gold. Grids were examined in a JOEL electron microscrope at an excitation voltage of 80 kV.
Images of 3 islet sections at a low magnification were prepared. A montage of each islet was made from electron micrographs and the areas of both intra and extra cellular amyloid identified and marked. The total islet area, together with the area of intra and extra cellular amyloid was then calculated using image analysis (Kontron Image Processor). 3 separate islets were examined for each condition.

[5] = after 24 h incubation, IAPP alone converted to β-conformation
[6] = Average of 3 islets, 7 days culture
[7] = individual islets 1-3, 7 days culture

| SMILES | proportion of non-fibrillar IAPP in the supernatant (Human IAPP (hIAPP)) | IAPP-associated fibril assembly (IAPP [2]) | Activity (IAPP [3]) | further results |
| --- | --- | --- | --- | --- |
| CN(C)CCCS(=O)(=O)O [x, 3-dimethylamino-1-propanesulfonic acid] | increase the proportion of non-fibrillar IAPP in the supernatant |  |  | time point at which the increase of non-fibrillar IAPP was greater (Human IAPP (hIAPP); time zero versus time 24 h): greater at time zero; molecular conformation of IAPP (CD spectra) (IAPP [1]; [5]): remained in α-conformation; molecular conformation of IAPP (CD spectra) (IAPP [1]; time zero): typical CD spectra for α-conformation |
| NCC(O)CS(=O)(=O)O (stereo not shown) [3-amino-2-hydroxy-1-propanesulfonic acid] |  | inhibit or prevent IAPP-associated fibril assembly | Active |  |
| O=S(=O)(O)CCCNCCCO [i, 3-(3-hydroxy-1-propyl)amino-1-propanesulfonic acid] | increase the proportion of non-fibrillar IAPP in the supernatant |  |  | molecular conformation of IAPP (CD spectra) (IAPP [1]; [5]): remained in α-conformation; molecular conformation of IAPP (CD spectra) (IAPP [1]; time zero): typical CD spectra for α-conformation |
| O=S(=O)(O)NC1CCCCC1 [cyclohexylsulfamic acid] |  | inhibit or prevent IAPP-associated fibril assembly |  |  |
| N[C@@H](COP(=O)(O)O)C(=O)O [v, O-Phospho-L-serine] | increase the proportion of non-fibrillar IAPP in the supernatant | inhibit or prevent IAPP-associated fibril assembly | Active |  |
| c1ccc2c(c1)CCNC2 [1,2,3,4-tetrahydroisoquinoline] |  | inhibit or prevent IAPP-associated fibril assembly |  |  |
| O=S(=O)(O)CCCN1CC=C(c2ccccc2)CC1 [viii, 4-phenyl-1-(3′ sulfopropyl)-1,2,3,6-tetrahydropyridine] | increase the proportion of non-fibrillar IAPP in the supernatant | inhibit or prevent IAPP-associated fibril assembly | Active |  |
| COc1ccc(S(=O)(=O)O)c2cccnc12 [vii, 8-methoxyquinoline-5-sulfonic acid] | increase the proportion of non-fibrillar IAPP in the supernatant |  | Active | Extra amyloid % of total [4, 6]: 1.6%; Extra amyloid area [4, 6]: 86.8 μm^2; Extra amyloid % of total [4, 7]: 1.9% and 0.5% and 3.4%; Extra amyloid area [4, 7]: 98.73 μm^2 and 37.9 μm^2 and 123.99 μm^2 |
| COc1ccc(S(=O)(=O)O)c2cccnc12 [8-methoxyquinoline-5-sulfonic acid] |  | inhibit or prevent IAPP-associated fibril assembly |  |  |
| O=S(=O)(O)NC1CCCCC1 [iv, Cyclohexylsulfamic acid] | increase the proportion of non-fibrillar IAPP in the supernatant |  | Active | molecular conformation of IAPP (CD spectra) (IAPP [1]; [5]): remained in α-conformation; molecular conformation of IAPP (CD spectra) (IAPP [1]; time zero): typical CD spectra for α-conformation |
| O=S(=O)(O)CCCNCCCO [3-(3-hydroxy-1-propyl)amino-1-propanesulfonic acid] |  | inhibit or prevent IAPP-associated fibril assembly | Active |  |
| CN(C)CCCS(=O)(=O)O [3-dimethylamino-1-propanesulfonic acid] |  | inhibit or prevent IAPP-associated fibril assembly | Active |  |
| NCC(O)CS(=O)(=O)O (stereo not shown) [ix, 3-amino-2-hydroxy-1-propanesulfonic acid] | increase the proportion of non-fibrillar IAPP in the supernatant |  |  |  |
| c1ccc2c(c1)CCNC2 [iii, 1,2,3,4-tetrahydroisoquinoline] | increase the proportion of non-fibrillar IAPP in the supernatant |  | Active | molecular conformation of IAPP (CD spectra) (IAPP [1]; [5]): remained in α-conformation; molecular conformation of IAPP (CD spectra) (IAPP [1]; time zero): typical CD spectra for α-conformation |
